Square brackets hold non-standard residues; d marks the D form. Peptide text beside a SMILES is read from it. * marks the point of attachment. Nva = CCC[C@H](N)C(=O)O; Cbz = O=C(OCc1ccccc1)*
Assays:
HUE cells [1] = assay: DNA fragmentation assay; format: cell-based, human; details: 250 µM caspase inhibitor 1 h before 10 µM PSI, 18 h
Description: • a. Analysis of PSI-induced DNA fragmentation by agarose gel electrophoresis. […] Neither caspase inhibitor (Ac-YVAD-CHO 250 µM, lane 4; Ac-DEVD-CHO 250 µM, lane 5) nor DMSO (lane 6) induced the characteristic pattern of DNA fragmentation. M1 and M2: DNA size markers (kb). • b. Immunoblot analysis of HUE cell lysates after incubation with PSI. […] Equal loading was controlled by using an antibody directed against GAPDH enzyme.
HUE cells which had been plated at 20000 cells/cm^2 24 hours before the assay, were treated with 250 µM of the caspase inhibitors Ac-YVAD-CHO or Ac-DEVO-CHO (Peptide Institute, Osaka, Japan) or the equivalent volume of dimethylsulfoxide (DMSO) for 1 h prior to additon of the proteasomal inhibitors. Incubation of the cells was continued for a further 18 h and the extent of DNA fragmentation was analyzed as previously described with some minor modifications (Hockenberry et al., Nature 348 (1990), 334 - 336). Briefly, both the floating cells and the adherent cells which were detached by trypsinization, were lysed in a solution containing 0.5% Triton X100, 10 mM EDTA and 10 mM Tris-HCL pH 7.5 for 30 min on ice. To separate the intact chromatin from the oligonucleosomal fragments, the lysate was centrifuged at 13000 g for 10 min at 4°C and the resulting supernatant was sequentially extracted with phenol followed by phenol/chloroform/iso-amylalcohol (25:24:1; v/v/v). Low molecular weight DNA was precipitated by the addition of 0.5 vol 7 M ammonium acetate and 2.5 vol ice-cold ethanol. The precipitate was washed in 75% ethanol, dissolved in TE-buffer, containing RNase A (20 µg/ml; Boehringer Mannheim), incubated for 30 min at 37°C and subjected to electrophoresis on 1.5% agarose gels.

[2] = tested on: subconfluent primary BAE cells; assay: Apoptotic morphology (phase contrast, Hoechst 33342), BAE cells; format: cell-based, bovine; details: for morphological changes associated with programmed cell death: subconfluent BAE cells, 50 µM for 15 - 24 h, or 10 µM after 48 hours
[3] = tested on: chorioallantoic membrane (CAM); assay: Chorioallantoic membrane (CAM) assay; format: in vivo, chick embryo
Description: All experiments with chick embryos were performed in ovo. After aspiration of 2 ml of eggwhite from the pointed side of the egg, a window was cut into the eggshell on embryonic day 3 or 4 (E3, E4). The eggs were resealed with tape and further incubated until E9. […] Approximately 1 cm^2-pieces of the CAM were then cut out, washed in PBS and fixed in Carnoy's solution. After dehydration and embedding in paraffin, 8 µm sections were cut and stained with an anti-BrdU mouse monoclonal antibody (Boehringer Mannheim, Germany) according to the manufacturer's instructions. Counterstaining of the sections was performed with Gill's hematoxylin (Serva, Heidelberg, Germany). Sections were mounted using Aquamount (Merck, Darmstadt, Germany) and photos were taken with a Zeiss Axiophot microscope. […] Control pellets were prepared with an equal amount of Leupeptin or with DMSO as vehicle, respectively. To aid in the visualization of the vascular system, embryos and CAMs were then injected using pulled glass capillaries with 10% Luconyl Blue (BASF, Ludwigshafen, Germany) in PBS, and photographs were taken using a stereomicroscope with camera adapter.
In eight eggs the windows of the egg shells were enlarged under an operation microscope. After a peripheral incision in the CAM was made, the main artery was incised with a pair of ocular scissors, and a glass capillary (World Precision Instruments, Inc. Germany) pulled to the adequate diameter, was inserted and sealed with a drop of cyanoacrylate (Loctite®). Efflux was enabled by making another incision into a main draining vessel. The vascular system was flushed with up to 5 ml of prewarmed (37 -39°C) physiological saline (0.9% NaCI) under mechanically controlled pressure. […] After complete polymerization of the casting solution, the membranes were dissected and macerated in a solution of 5% potassium hydroxide (Fluka, Neu-Ulm, Germany) at 40°C for 1 - 2 days. The resulting corrosion casts of all specimens were freeze dried, mounted and sputter coated. Examination of the microvascular corrosion casts were carried out with a Stereoscan Mk-250 scanning electron microscope (Cambridge, England). Alternatively, in situ fixed CAM segments were cut out, processed for semi-thin sectioning and stained with methylene blue and Azur II. Selected specimens were trimmed for ultrathin sectioning, and counterstained with uranyl acetate and lead citrate.

[4] = target: T1, chymotrypic activity of the proteasome (Bos taurus, UniProt Q32KL2); assay: Proteasomal activity in lysates of treated BAE cells, substrate Suc-LLVY-AMC; format: cell-based, bovine; details: total cell lysates after 15 h incubation of BAECs with 50 µM inhibitor
T1 construct: endogenous in cells; host or cells: primary bovine aortic endothelial cells (BAE), total lysate after 15-16 h treatment of the cells
T1 sequence (Q32KL2 60-263): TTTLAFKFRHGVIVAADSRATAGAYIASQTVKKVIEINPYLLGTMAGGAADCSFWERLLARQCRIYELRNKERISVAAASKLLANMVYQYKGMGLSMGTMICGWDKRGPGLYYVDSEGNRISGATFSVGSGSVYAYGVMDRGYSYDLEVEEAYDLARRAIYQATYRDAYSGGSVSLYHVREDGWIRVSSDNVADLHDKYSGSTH
Description: (§1) Lysates prepared from BAE cells incubated for 15 hours with 50 µM of the indicated inhibitors were assayed for their ability to suppress proteasomal function by using Suc-LLVY-AMC as substrate for the chymotryptic activity (a) and Z-LLE-AMC as substrate for the post acidic residue cleaving activity (b). Activities are expressed as the relative fluorescence measured after 45 min of incubation with the substrates and reflect the mean of two independent experiments each performed in duplicate.
(§2) DMSO at a final concentration of 0.1% served as a vehicle-only control. Floating and adherent cells were harvested, lysed by sonication in ice-cold solution of 20 mM Tris-HCI pH 7.5, containing 20% glycerol, centrifuged in a benchtop centrifuge (10 min, 2000 g). […] A total of 15 µg of protein in a volume of 200 µl lysis buffer supplemented with 5 mM CaCl2 was assayed for chymotryptic and peptidyl-glutamyl-hydrolyzing activity in the presence of 10 µM Suc-Leu-Leu-Val-Tyr-AMC (Bachem, Heidelberg, Germany) and 10 µM Z-Leu-Leu-Glu-AMC (Peptide Institute, Osaka, Japan) respectively.

calpain = details: cited from earlier work
cathepsin B = cathepsin B (Homo sapiens, UniProt P07858); details: cited from earlier work
BAE cells = assay: Viability assay (MIT assay), BAE cells; format: cell-based, bovine; details: for EC50: Bos taurus
HUE cells [5] = assay: Viability assay (MIT assay), HUE cells; format: cell-based, human; details: for EC50: Homo sapiens, 48 h, 48 h incubation
MDCK epithelial cells = assay: Viability assay (MIT assay), MDCK cells; format: cell-based, canine; details: for EC50: Canis lupus familiaris, 48 h, 48 h incubation
Description: The indicated values are expressed as the percentage of absorbance at 570 nm relative to the absorbance obtained by DMSO treated (control) cells.
Madin Darby canine kidney epithelial cells (MDCK; ATCC CLL-34) were grown in Dulbecco's Modified Eagle's Medium (DMEM) containing 10% FCS, penicillin and streptomycin.
Briefly, the cells were plated either at 3000 cells/well (low density) or 30000 cells/well (high density) onto 96 well plates and grown over night. […] The formazan cystals generated were subsequently dissolved in DMSO and absorption measured at 570 - 650 nm.

[6] = target: T2, peptidyl-glutamyl hydrolyzing activity of the proteasome (Bos taurus, UniProt Q3MHN0); assay: Proteasomal activity in lysates of treated BAE cells, substrate Z-LLE-AMC; format: cell-based, bovine; details: total cell lysates after 15 h incubation of BAECs with 50 µM inhibitor
T2 construct: endogenous in cells; host or cells: primary bovine aortic endothelial cells (BAE), total lysate after 15-16 h treatment of the cells
T2 sequence (Q3MHN0 1-239): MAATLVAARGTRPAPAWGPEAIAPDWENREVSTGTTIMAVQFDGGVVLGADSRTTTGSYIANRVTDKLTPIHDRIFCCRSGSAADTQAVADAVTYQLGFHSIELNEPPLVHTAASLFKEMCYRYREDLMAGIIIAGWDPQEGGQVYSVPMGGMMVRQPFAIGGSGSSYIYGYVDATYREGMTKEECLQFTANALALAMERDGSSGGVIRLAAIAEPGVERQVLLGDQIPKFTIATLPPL
Description: as §1, §2

[7] = EC50 confluent versus subconfluent, 2880 min
[8] = sub (low density, subconfluent)

For `CC(=O)N[C@@H](Cc1ccc(O)cc1)C(=O)N[C@H](C(=O)N[C@@H](C)C(=O)N[C@H](C=O)CC(=O)O)C(C)C` [Ac-YVAD-CHO], the “blocking of PSI-induced morphological changes and DNA fragmentation” value (HUE cells [1]) was “unable to inhibit the action of PSI”.
With `CC(C)C[C@@H](C=O)NC(=O)[C@H](CC(C)C)NC(=O)[C@H](CC(C)C)NC(=O)OCc1ccccc1` [LLL] (Cbz-Leu-Leu-Leu-aldehyde) the “morphological changes associated with programmed cell death” value [2] was “had the same effect”.
For `CC(=O)N[C@@H](CC(C)C)C(=O)N[C@@H](CC(C)C)C(=O)N[C@H](C=O)CCCNC(=N)N` [Leupeptin], the “%CAMs with non-perfused areas” value ([3]; 3.1 µg/disc, methylcellulose disc on CAM for 48 h, Luconyl Blue injection, positive/total CAMs in parenthesis) was 0 (0/26) %, the “vascular patterning or perfusion efficacy in the CAM” value ([3]; same amount as PSI (3.1 µg/disc)) was “did not elicit any significant changes” and the “cleavage of Suc-Leu-Leu-Val-Tyr-AMC” value [4] was “not”.
For `CC(=O)N[C@@H](CC(=O)O)C(=O)N[C@@H](CCC(=O)O)C(=O)N[C@H](C(=O)N[C@H](C=O)CC(=O)O)C(C)C` [Ac-DEVD-CHO], the “blocking of PSI-induced morphological changes and DNA fragmentation” value (HUE cells [1]) was “blocked”.
In the case of `CSCC[C@@H](C=O)NC(=O)[C@H](CC(C)C)NC(=O)[C@H](CC(C)C)NC(C)=O` [LLnM] (Ac-Leu-Leu-Met-aldehyde), the “cleavage of Suc-Leu-Leu-Val-Tyr-AMC” value [4] is given as “not”, the “changes in cellular morphology or viability” value ([2]; cultured BAE cells) is given as “did not induce any changes” and the Ki (calpain) is given as 9 nM. The Ki (cathepsin B) was 12 nM.
In the case of `CC(C)C[C@H](NC(=O)[C@H]1O[C@@H]1C(=O)O)C(=O)NCCCCN=C(N)N` [E64], the “cleavage of Suc-Leu-Leu-Val-Tyr-AMC” value [4] is reported as “not”.
For `CCC[C@@H](C=O)NC(=O)[C@H](CC(C)C)NC(=O)[C@H](CC(C)C)NC(=O)OCc1ccccc1` [LLnV] (Cbz-Leu-Leu-[Nva]-aldehyde), the x difference (BAE cells; BAE, EC50 confluent versus subconfluent, 2880 min) was 6.8 fold, the EC50 (BAE cells; 96 h, BAE cells seeded at high density, grown to confluency for 4 days) was 2720 nM and the EC50 (BAE cells; BAE, con (grown to confluency for 4 days), 48 h incubation) was 2720 nM. The EC50 (BAE cells; BAE, sub (low density, subconfluent), 48 h incubation, viability reduced to 50% of DMSO control) was 402 nM, the x difference (HUE cells [5]; [7]) was 8.1 fold and the EC50 (HUE cells [5]; con (grown to confluency)) was 2500 nM. The EC50 (HUE cells [5]; [8]) was 310 nM, the EC50 (MDCK epithelial cells; con (confluent)) was 2950 nM and the EC50 (MDCK epithelial cells; [8]) was 196 nM. For the same compound, the x difference (MDCK epithelial cells; [7]) was 15.1 fold, the “cleavage of Suc-Leu-Leu-Val-Tyr-AMC” value [4] was “clearly reduced” and the “total cellular peptidyl-glutamyl hydrolyzing activity (Z-Leu-Leu-Glu-AMC)” value [6] was “similarly reduced”. For the same compound, the “morphological changes associated with programmed cell death” value [2] was “had the same effect”.

— patent EP1053750A1, “Use of proteasome-inhibitor for the induction of programmed cell death (apoptosis)” (Max-Planck-Gesellschaft zur Förderung der Wissenschaften …, priority 1999, dated 2000)
